From PMC6686156, “Discovery of Sustainable Drugs for Neglected Tropical Diseases: Cashew Nut Shell Liquid (CNSL)‐Based Hybrids Target Mitochondrial Function and ATP Production in Trypanosoma brucei” (Chemmedchem, 2019)
Where two headings read alike, the source gives them in different places.

Legend:
[1] = tested on: T. b. brucei 427WT bloodstream trypomastigotes; assay: microbe, parasite or virus in culture; assay type: cell-based, Trypanosoma brucei brucei; details: for EC50: Trypanosoma brucei; for SI, selectivity index=EC50(HFF)/EC50(T. b. b. WT): HFF versus T. b. b. 427WT; for RF, resistance factor (+ 5 mM glycerol versus control): Table 2
Method: (§1) Organisms and culture media: Only bloodstream trypomastigotes of T. b. brucei were used throughout this study. […] Parasites were cultured in vented flasks at 37 °C and 5 % CO2 atmosphere and they were passaged every 3 days. Bloodstream forms of T. congolense savannah‐type strain IL3000 were cultured in basal MEM medium, supplemented by 10 % fresh goat serum, 14 μL of β‐mercaptoethanol, 800 μL of 200 mM glutamine solution, and 10 mL of penicillin/streptomycin solution per liter of medium (pH 7.3).48 T. congolense were cultured in six‐well plates at 34 °C and 5 % CO2.
(§2) In brief, the assays were performed in 96‐well plates with 2×10^5 cells per well for T. b. brucei or 5×10^5 cells per well for T. congolense, in their respective culture media. First, 200 μL of test compounds’ solutions (400 μM, in T. brucei or T. congolense medium as appropriate) was added to the first well of each 12‐well row, from which doubling dilutions were conducted over one row per test compound. […] Fluorescence was detected using a FLUOstar Optima (BMG Labtech, Durham, NC, USA) at wavelength of 540 nm (excitation), 590 nm (emission). EC50 values were calculated by nonlinear regression using an equation for a sigmoidal dose–response curve with variable slope using Prism 5.0 (GraphPad Software Inc., San Diego, CA, USA).

T. brucei GAPDH = T. brucei GAPDH (Trypanosoma brucei brucei, UniProt P22512); assay: Inhibition of T. brucei GAPDH; assay type: biochemical; details: fixed concentration of 10 μM; data not shown; read-out: decrease of GAPDH activity
Excerpt: […]. […] Limitations of solubility prevented us from testing the series at higher concentrations. However, it must be noted that we cannot exclude the possibility of a low‐affinity inhibition of GAPDH contributing to the trypanocidal effect, as compounds may accumulate to relatively high concentrations within the parasite.

T. congolense IL3000 WT = assay: In vitro drug susceptibility assay (resazurin), T. congolense; assay type: cell-based; details: bloodstream forms, read-out: EC50 T. c. IL3000 WT
Method: as §1, §2

T. b. brucei B48 = assay: microbe, parasite or virus in culture; assay type: cell-based, Trypanosoma brucei brucei; details: for RF, resistance factor relative to WT (B48): B48 versus 427WT; for EC50: Trypanosoma brucei, read-out: EC50 T. b. b. B48
Method: as §1, §2

[2] = tested on: T. b. brucei aqp2/aqp3‐KO; assay: microbe, parasite or virus in culture; assay type: cell-based, Trypanosoma brucei brucei; details: for EC50: Trypanosoma brucei, read-out: EC50 T. b. b. aqp2/aq3‐KO; for RF, resistance factor relative to WT (aqp2/aqp3-KO): aqp2/aqp3-KO versus 427WT
Method: as §1, §2

[3] = Cytotoxicity assay on human foreskin fibroblast (HFF), resazurin; assay type: cell-based; details: human foreskin fibroblast (HFF) cells, tested up to 200 μM, read-out: HFF cytotoxic activity (EC50)
Method: Cytotoxicity assay on human foreskin fibroblast (HFF): Toxicity of test compounds to mammalian cells was carried out using the resazurin assay previously described31 with slight modifications as follows. HFF cells were grown in a culture medium containing 500 mL of Dulbecco's modified Eagle's medium (DMEM; Sigma), 50 mL newborn calf serum (NBCS; Gibco), 5 mL penicillin/streptomycin (Gibco), and 5 mL of L‐Glutamax ([…], Gibco), at 37 °C and 5 % CO2 in vented flasks and passaged at 80–85 % of confluence. For the cytotoxicity assay, cells were suspended at 3×10^5 cells mL^−1 and 100 μL aliquots were added to each well of a 96‐well plate. The plate was incubated at 37 °C and 5 % CO2 for 24 h to allow cell adhesion. Serial test compounds dilution was performed in a different 96‐well plate and 100 μL of each dilution was transferred to each well containing cells, resulting in exposure of cells to 200–0.2 μM of test compound. Phenylarsine oxide (Sigma–Aldrich) was used as positive control and drug‐free incubation as negative control. The plates were incubated at 37 °C and 5 % CO2 for an additional 30 h, at which point 10 μL of resazurin solution ([…] in PBS) was added, followed by a final incubation for 24 h. The plates were read and the data analyzed as described above for the trypanosome assay.

[4] = tested on: T. b. brucei 427WT trypomastigotes; assay: Growth curve / time-to-kill determination; assay type: cell-based, Trypanosoma brucei brucei; details: 1× EC50; for time to sterilize the culture: 427WT seeded at 1×10^5 cells/mL
Method: To determine whether 18–22 inhibited growth or cell division rather than causing cell death of T. b. brucei, cell growth curves were performed by treating 427WT trypomastigotes with concentrations corresponding to 0.5×, 1×, and 2× the EC50 value, using untreated cells as a control. Incubation with test compounds at half the EC50 (Figure 3 A) caused mostly some delayed growth phenotype, with rates increasing after 10 or 20 h. […] At double the concentration (Figure 3 C), all the hybrids cleared the culture between the 4 h and 8 h time points, with the cell populations rapidly declining between 2 and 4 h.
Untreated parasites, used as control, were grown in parallel. The cells were counted by using hemocytometer cell counter (cell count/mL×10^4) at 0, 2, 4, 8, 12, 24, 28, 32, 36, 48 h of incubation. Each experiment was performed as two independent replicates, and each sample was counted at least twice.

[5] = 72 h, bloodstream trypomastigotes, resazurin, 48 h + 24 h, n=4, read-out: EC50 T. b. b. 427WT
[6] = Table 2, 5 mM glycerol in medium, average±SEM of three, read-out: EC50 s427WT + 5 mM glycerol
[7] = Table 2, no glycerol, average±SEM of three, read-out: EC50 Control s427WT

Sequence of T. brucei GAPDH (P22512 whole entry): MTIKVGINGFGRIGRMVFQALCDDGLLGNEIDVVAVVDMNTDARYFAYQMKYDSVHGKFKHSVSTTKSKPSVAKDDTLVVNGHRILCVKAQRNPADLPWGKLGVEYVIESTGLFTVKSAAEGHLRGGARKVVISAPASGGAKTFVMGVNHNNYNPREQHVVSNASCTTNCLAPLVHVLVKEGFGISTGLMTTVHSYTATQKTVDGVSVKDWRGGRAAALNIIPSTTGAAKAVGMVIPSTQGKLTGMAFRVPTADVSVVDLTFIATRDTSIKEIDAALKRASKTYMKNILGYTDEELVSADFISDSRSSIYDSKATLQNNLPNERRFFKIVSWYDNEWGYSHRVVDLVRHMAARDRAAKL

CCCCCCCCCCCCCCCc1cccc(OC2=CC(=O)c3cccc(O)c3C2=O)c1 [Compound 16, 8‐Hydroxy‐2‐(3‐pentadecylphenoxy)naphthalene‐1,4‐dione]
EC50 [1, 5]: > 200 µM | inhibition at 10 µM (T. brucei GAPDH): < 15%

CCCCCCCCCCCCCCCc1cccc(OC2=CC(=O)c3cccc(OC)c3C2=O)c1 [Compound 14, 8‐Methoxy‐2‐(3‐pentadecylphenoxy)naphthalene‐1,4‐dione]
EC50 [1, 5]: > 200 µM | inhibition at 10 µM (T. brucei GAPDH): < 15%

CCCCCCCCCCCCCCCc1cccc(OC2=CC(=O)c3cccc(OC)c3C2=O)c1C(=O)OC [Compound 9, Methyl 2‐((8‐methoxy‐1,4‐dioxo‐1,4‐dihydronaphthalen‐2‐yl)oxy)‐6 pentadecylbenzoate]
EC50 [1, 5]: > 200 µM | inhibition at 10 µM (T. brucei GAPDH): < 15%

CCCCCCCCCCCCCCCc1cccc(OC2=CC(=O)c3c(OC)cccc3C2=O)c1C(=O)OC [Compound 10, Methyl 2‐((5‐methoxy‐1,4‐dioxo‐1,4‐dihydronaphthalen‐2‐yl)oxy)‐6‐pentadecylbenzoate]
EC50 [1, 5]: > 200 µM | inhibition at 10 µM (T. brucei GAPDH): < 15%

N=C(N)c1ccc(N=NNc2ccc(C(=N)N)cc2)cc1 [DA, Diminazene aceturate, reference compound]
EC50 (T. congolense IL3000 WT): 170 ± 0.3 nM

CCCCCCCCCCCCCCCc1cccc(OC2=CC(=O)c3c(O)cccc3C2=O)c1C(=O)OC [Compound 12, Methyl 2‐((5‐hydroxy‐1,4‐dioxo‐1,4‐dihydronaphthalen‐2‐yl)oxy)‐6‐pentadecylbenzoate]
EC50 [1, 5]: > 200 µM | inhibition at 10 µM (T. brucei GAPDH): < 15%

COc1cccc2c1C(=O)C(Oc1cccc(CCCCCCCCO)c1)=CC2=O [Compound 19, 2‐(3‐(8‐Hydroxyoctyl)phenoxy)‐8‐methoxynaphthalene‐1,4‐dione]
SI, selectivity index=EC50(HFF)/EC50(T. b. b. WT) [1]: >13.3 | RF, resistance factor (+ 5 mM glycerol versus control) [1]: 0.97 | EC50 [1, 5]: 15 ± 1.3 µM | EC50 [1, 6]: 16.3 ± 0.4 µM | EC50 [1, 7]: 16.8 ± 0.06 µM | RF, resistance factor relative to WT (B48) (T. b. brucei B48): 0.98 | EC50 (T. b. brucei B48): 14.6 ± 1.7 µM | EC50 [2]: 17.7 ± 1.5 µM | RF, resistance factor relative to WT (aqp2/aqp3-KO) [2]: 1.2 | EC50 at 54 h [3]: > 200 µM | inhibition at 10 µM (T. brucei GAPDH): < 15% | time to sterilize the culture [4]: 8 h

CCCCCCCCCCCCCCCc1cccc(OC2=CC(=O)c3ccccc3C2=O)c1C(=O)OC [Compound 8, Methyl 2‐((1,4‐dioxo‐1,4‐dihydronaphthalen‐2‐yl)oxy)‐6‐pentadecylbenzoate]
EC50 [1, 5]: > 200 µM | inhibition at 10 µM (T. brucei GAPDH): < 15%

CCCCCCCCCCCCCCCc1cccc(OC2=CC(=O)c3ccccc3C2=O)c1 [Compound 13, 2‐(3‐Pentadecylphenoxy)naphthalene‐1,4‐dione]
EC50 [1, 5]: > 200 µM | inhibition at 10 µM (T. brucei GAPDH): < 15%

O=C1C=C(Oc2cccc(CCCCCCCCO)c2)C(=O)c2ccccc21 [Compound 18, 2‐(3‐(8‐Hydroxyoctyl)phenoxy)naphthalene‐1,4‐dione]
SI, selectivity index=EC50(HFF)/EC50(T. b. b. WT) [1]: >21.98 | RF, resistance factor (+ 5 mM glycerol versus control) [1]: 1.04 | EC50 [1, 5]: 9.1 ± 1.4 µM | EC50 [1, 6]: 31.2 ± 0.6 µM | EC50 [1, 7]: 30 ± 0.08 µM | RF, resistance factor relative to WT (B48) (T. b. brucei B48): 0.95 | EC50 (T. b. brucei B48): 8.6 ± 2.4 µM | EC50 [2]: 10.1 ± 2.2 µM | RF, resistance factor relative to WT (aqp2/aqp3-KO) [2]: 1.1 | EC50 at 54 h [3]: > 200 µM | inhibition at 10 µM (T. brucei GAPDH): < 15% | time to sterilize the culture [4]: 2 h

CCCCCCCCCCCCCCCc1cccc(OC2=CC(=O)c3c(O)cccc3C2=O)c1 [Compound 17, 5‐Hydroxy‐2‐(3‐pentadecylphenoxy)naphthalene‐1,4‐dione]
EC50 [1, 5]: > 200 µM | inhibition at 10 µM (T. brucei GAPDH): < 15%

CCCCCCCCCCCCCCCc1cccc(OC2=CC(=O)c3c(OC)cccc3C2=O)c1 [Compound 15, 5‐Methoxy‐2‐(3‐pentadecylphenoxy)naphthalene‐1,4‐dione]
EC50 [1, 5]: > 200 µM | inhibition at 10 µM (T. brucei GAPDH): < 15%

N=C(N)c1ccc(OCCCCCOc2ccc(C(=N)N)cc2)cc1 [PMD, Pentamidine, reference compound]
EC50 [1, 5]: 0.0093 ± 0.0001 µM | RF, resistance factor relative to WT (B48) (T. b. brucei B48): 339 | EC50 (T. b. brucei B48): 3.1 ± 0.7 µM | EC50 [2]: 0.2 ± 0.01 µM | RF, resistance factor relative to WT (aqp2/aqp3-KO) [2]: 22.0

O=C1C=C(Oc2cccc(CCCCCCCCO)c2)C(=O)c2c(O)cccc21 [Compound 21, 8‐Hydroxy‐2‐(3‐(8‐hydroxyoctyl)phenoxy)naphthalene‐1,4‐dione]
SI, selectivity index=EC50(HFF)/EC50(T. b. b. WT) [1]: >5 | EC50 [1, 5]: 40.5 ± 4.9 µM | RF, resistance factor relative to WT (B48) (T. b. brucei B48): 0.91 | EC50 (T. b. brucei B48): 36.9 ± 5.3 µM | EC50 [2]: 46.7 ± 7.7 µM | RF, resistance factor relative to WT (aqp2/aqp3-KO) [2]: 1.2 | EC50 at 54 h [3]: > 200 µM | inhibition at 10 µM (T. brucei GAPDH): < 15% | effect on cell growth ([4]; over 48 h): decreased the growth rate substantially, with a nearly trypanostatic effect over the first 12 h

CCCCCCCCCCCCCCCc1cccc(OC2=CC(=O)c3cccc(O)c3C2=O)c1C(=O)OC [Compound 11, Methyl 2‐((8‐hydroxy‐1,4‐dioxo‐1,4‐dihydronaphthalen‐2‐yl)oxy)‐6‐pentadecylbenzoate]
EC50 [1, 5]: > 200 µM | inhibition at 10 µM (T. brucei GAPDH): < 15%
